From ChEMBL document CHEMBL1140463, “From ATP to AZD6140: the discovery of an orally active reversible P2Y12 receptor antagonist for the prevention of thrombosis” (Bioorg Med Chem Lett, 2007)
Calls of active or inactive are those of the source. The rule behind the calls is not given here.

Experiments:
[1] = Volume of distribution at steady state in dog at 1 mg/kg, iv; format: ADME, organism-based, Canis lupus familiaris; design: dose 1 mg/kg, route intravenous; conditions: in vivo, read-out: Vdss
P2Y purinoceptor 12 = P2Y purinoceptor 12 (Homo sapiens, UniProt Q9H244); assay: Displacement of [125I] labeled ligand from human P2Y12 receptor in human platelets
[2] = Volume of distribution at steady state in rat at 3 mg/kg, iv; format: ADME, organism-based; design: dose 3 mg/kg, route intravenous; conditions: in vivo, read-out: Vdss
Hepatocyte [3] = assay: Metabolic stability in human hepatocytes in presence of NADPH relative to dextromethorphan; format: ADME, cell-based
[4] = Half life in rat at 3 mg/kg, iv; format: ADME, organism-based; design: dose 3 mg/kg, route intravenous; conditions: in vivo
Hepatocyte [5] = assay: Metabolic stability in human hepatocytes in presence of UDPGA relative to zileuton; format: ADME, cell-based
[6] = Half life in dog at 1 mg/kg, iv; format: ADME, organism-based, Canis lupus familiaris; design: dose 1 mg/kg, route intravenous; conditions: in vivo
in vivo = conditions: rat, iv, 3 mg/kg
Description: Plasma clearance in rat at 3 mg/kg, iv

[7] = Plasma clearance in dog at 1 mg/kg, iv; format: ADME, organism-based, Canis lupus familiaris; design: dose 1 mg/kg, route intravenous
[8] = Oral bioavailability in dog at 1 mg/kg; format: ADME, organism-based, Canis lupus familiaris; conditions: in vivo
[9] = Oral bioavailability in rat at 3 to 10 mg/kg; format: ADME, organism-based; conditions: in vivo
Canis familiaris = assay: Inhibition of ADP-induced platelet aggregation in po dosed dog; format: functional, organism-based; conditions: Canis lupus familiaris

P2Y purinoceptor 12, sequence (Q9H244 whole entry): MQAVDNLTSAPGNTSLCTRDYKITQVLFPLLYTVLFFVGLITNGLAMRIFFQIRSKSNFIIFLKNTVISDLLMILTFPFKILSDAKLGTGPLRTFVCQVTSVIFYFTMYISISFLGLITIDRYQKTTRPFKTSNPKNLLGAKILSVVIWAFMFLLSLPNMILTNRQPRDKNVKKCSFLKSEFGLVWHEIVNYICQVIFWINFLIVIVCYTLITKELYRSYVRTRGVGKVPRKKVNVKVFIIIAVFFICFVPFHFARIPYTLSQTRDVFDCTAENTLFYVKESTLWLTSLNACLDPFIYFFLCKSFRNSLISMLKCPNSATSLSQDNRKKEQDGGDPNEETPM

Structure (SMILES) | Vd [1] [L/kg] | Ki (P2Y purinoceptor 12) [nM] | Vd [2] [L/kg] | Ratio (Hepatocyte [3]) | half-life [4] [h] | Stability (Hepatocyte [5]) | half-life [6] [h] | clearance (in vivo; plasma) [mL/min/kg] | clearance [7] [mL/min/kg] | bioavailability [8] [%] | bioavailability [9] [%] | Ratio (Hepatocyte [5]) | Stability (Hepatocyte [3]) | clearance (in vivo; in vivo) [mL/min/kg] | Activity (Canis familiaris)
OC[C@H]1C[C@@H](n2nnc3c(N[C@@H]4C[C@H]4c4ccc(F)c(F)c4)nc(SCCC(F)(F)F)nc32)[C@H](O)[C@@H]1O | 5.6 | 5.01 | 2.7 | > 30 | 3 | Stable | 4.8 | 11 | 16.5 | 59 | 17 |  |  |  | 
CCCSc1nc(N[C@@H]2C[C@H]2c2ccccc2)c2nnn([C@@H]3C[C@H](C(N)=O)[C@@H](O)[C@H]3O)c2n1 |  | 1.58 | 2.2 |  | 2 |  |  | 20 |  |  | < 5 |  |  |  | 
CCCSc1nc(N[C@@H]2C[C@H]2c2ccccc2)c2nnn([C@@H]3CC[C@@H](O)[C@H]3O)c2n1 |  | 2.51 |  |  |  |  |  |  |  |  | 38 | 1 |  |  | 
OC[C@H]1C[C@@H](n2nnc3c(N[C@@H]4C[C@H]4c4ccccc4)nc(SCCC(F)(F)F)nc32)[C@H](O)[C@@H]1O |  | 5.01 |  |  |  |  |  |  |  |  |  | 19 | Stable |  | 
CCCCNc1nc(SCCC)nc2c1nnn2[C@@H]1C[C@H](CO)[C@@H](O)[C@H]1O |  | 79.4 | 2.3 |  | 1.2 |  |  |  |  |  | < 5 |  |  | 29 | 
CCCSc1nc(N[C@@H]2C[C@H]2c2ccccc2)c2nnn([C@@H]3C[C@H](OCCO)[C@@H](O)[C@H]3O)c2n1 |  | 3.16 |  | 13 |  |  |  |  |  |  | 26 | 24 |  |  | 
CCCSc1nc(N[C@@H]2C[C@H]2c2ccccc2)c2nnn([C@@H]3C[C@H](CO)[C@@H](O)[C@H]3O)c2n1 [listing 1 of 2 here] |  | 5.01 | 2.9 | > 30 | 2.5 |  |  | 16 |  |  | 35 | 5 |  |  | 
CCCSc1nc(N[C@@H]2C[C@H]2c2ccc(F)c(F)c2)c2nnn([C@@H]3C[C@H](OCCO)[C@@H](O)[C@H]3O)c2n1 [TICAGRELOR] | 3 | 2 | 3.8 | 24 | 2.6 | Stable | 2.9 | 21 | 9 | 72 | 24 |  |  |  | 
CCCCNc1nc(SCCC)nc2c1nnn2[C@@H]1C[C@H](C(=O)O)[C@@H](O)[C@H]1O |  | 5.01 | 0.4 |  | 0.5 |  |  | 30 |  |  | < 5 |  |  |  | 
OCCO[C@H]1C[C@@H](n2nnc3c(N[C@@H]4C[C@H]4c4ccc(F)c(F)c4)nc(SCCC(F)(F)F)nc32)[C@H](O)[C@@H]1O |  | 0.631 | 2.1 | 32 | 2.5 | Stable |  | 12 |  |  | 9 |  |  |  | 
CCCSc1nc(N[C@@H]2C[C@H]2c2ccccc2)c2nnn([C@@H]3C[C@H](CO)[C@@H](O)[C@H]3O)c2n1 [listing 2 of 2 here] |  |  |  |  |  |  |  |  |  |  |  |  |  |  | Active
CCCCNc1nc(SCCC)nc2c1nnn2[C@@H]1C[C@H](C(N)=O)[C@@H](O)[C@H]1O |  | 20 | 1.6 |  | 1.4 |  |  | 21 |  |  | < 5 |  |  |  | 
CCCSc1nc(N[C@@H]2C[C@H]2c2ccccc2)c2nnn([C@@H]3C[C@H](O)[C@@H](O)[C@H]3O)c2n1 |  | 2 |  |  |  |  |  |  |  |  | 50 | 3 | Stable |  | 
CCCSc1nc(N[C@@H]2C[C@H]2c2ccccc2)c2nnn([C@@H]3C[C@H](C(=O)O)[C@@H](O)[C@H]3O)c2n1 |  | 0.251 | 0.5 |  | 0.5 |  |  | 16 |  |  |  |  |  |  | 
CCCSc1nc(N[C@@H]2C[C@H]2c2ccccc2)c2nnn([C@@H]3C[C@H](CO)[C@@H](O)[C@H]3O)c2n1.Cl |  | 6.31 |  | 27 |  |  |  |  |  |  | 37 | 19 |  |  | 
